The source of these data is PubChem BioAssay (NCI).

Values joined by “and” are separate entries in the source; they are usually repeats but may differ in a detail not shown here. Equal values may be shown once.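 Step 1: Grow cells in 96-well plates. Step 2: Expose to compound for 48 hours at 5 concentrations. Step 3: Interpolate endpoints linearly; if unreached, use highest concentration. The concentration for 50% growth inhibition is given as GI50. TGI: total growth inhibition.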 Where only a bound is given, the exact number is not on record here.

Some test systems named below: MDA-MB-435; HS 578T breast; SF-268 CNS; SK-MEL-28 melanoma; UACC-62 melanoma; RXF 393 renal; CAKI-1 renal.
Common to all, as to experiment: NCI anticancer screen, dose series, 48 h

With `N=c1ccn2c(n1)OC1C(OP(=O)(O)O)C(CO)OC12` (configuration not stated), the TGI in the assay on MDA-MB-435, in the assay on HS 578T breast, with SF-268 CNS, in the assay on SK-MEL-28 melanoma, in the assay with UACC-62 melanoma and in the assay with RXF 393 renal was above 100 µM in each case. For the same molecule, the TGI with CAKI-1 renal is above 100 µM.
As to `C/C(=C\c1ccn(-c2ccc(N)c(C(F)(F)F)c2)n1)[C@@H]1C[C@@H]2O[C@]2(C)CCC[C@H](C)[C@H](O)[C@@H](C)C(=O)C(C)(C)[C@@H](O)CC(=O)O1`, the GI50 in the assay on HS 578T breast is 0.0103 µM; in the assay with SF-268 CNS, 0.0349 µM; with SK-MEL-28 melanoma it was 3.87 µM; in the assay on UACC-62 melanoma it was 0.0599 µM; with RXF 393 renal, 0.0111 µM; with CAKI-1 renal it was 0.0429 µM. The TGI in the assay with HS 578T breast is 11 µM; in the assay with SF-268 CNS, above 32.5 µM; with SK-MEL-28 melanoma, above 32.5 µM; in the assay with UACC-62 melanoma, above 16.2 µM; in the assay with RXF 393 renal, 0.435 µM; in the assay with CAKI-1 renal, above 32.5 µM.
In the case of `CS(=O)(=O)CCNCc1ccc(-c2ccc3ncnc(Nc4ccc(OCc5ccccc5)c(C(F)(F)F)c4)c3c2)o1`, the GI50 in the assay with MDA-MB-435 is 4.8 µM; with HS 578T breast, 4.16 µM; with SF-268 CNS, 7.99 µM; in the assay with SK-MEL-28 melanoma, 4.43 µM; in the assay with UACC-62 melanoma, 4.76 µM; with RXF 393 renal it was 3.53 µM. Moreover, the GI50 with CAKI-1 renal is 7.09 µM. The TGI in the assay with MDA-MB-435 is 10.5 µM; in the assay on HS 578T breast, 12.2 µM; with SF-268 CNS, above 25 µM; with SK-MEL-28 melanoma, 8.83 µM; in the assay on UACC-62 melanoma, 8.66 µM; with RXF 393 renal, 7.77 µM. In addition, in the assay on CAKI-1 renal, the TGI is above 25 µM.
In the case of `Nc1ccccc1NC(=O)c1ccc(CSc2nc(N3CCOCC3)c3cccn3n2)cc1`, the GI50 with MDA-MB-435 was 0.27 µM; in the assay on HS 578T breast, 0.781 µM; in the assay on SF-268 CNS, 0.732 µM; in the assay with SK-MEL-28 melanoma, 1 µM; in the assay with UACC-62 melanoma it was 0.412 µM; in the assay with RXF 393 renal, 0.464 µM. The TGI is 1 µM in the assay with MDA-MB-435; above 100 µM in the assay with HS 578T breast; 10.5 µM in the assay with SF-268 CNS; 31.3 µM in the assay with SK-MEL-28 melanoma; 2.82 µM in the assay with UACC-62 melanoma; 2.51 µM in the assay on RXF 393 renal.
For the molecule `CCOC(=O)[C@H](CSSc1ncnc2cc[nH]c12)NC(=O)[C@@H](C)c1ccc2cc(OC)ccc2c1`, the GI50 with MDA-MB-435 was 0.355 µM; in the assay with HS 578T breast it was 7.92 µM; with SF-268 CNS it was 2.74 µM; in the assay on SK-MEL-28 melanoma it was 13.8 µM; with UACC-62 melanoma, 0.425 µM; in the assay with RXF 393 renal, 1.62 µM. In the assay with CAKI-1 renal, the GI50 is 0.378 µM. The TGI with MDA-MB-435, in the assay with HS 578T breast, in the assay with SF-268 CNS, with SK-MEL-28 melanoma, with UACC-62 melanoma and in the assay on RXF 393 renal was above 100 µM each time. In the assay on CAKI-1 renal, this molecule registered a TGI above 100 µM.
For `COc1ccc(-c2cc(-c3ccc(Nc4nc(Nc5ccc(Cl)cc5)nc(Nc5ccc(Cl)cc5)n4)cc3)no2)cc1`, the GI50 was 10.3 µM in the assay on MDA-MB-435; 20.3 µM in the assay on HS 578T breast; 9.3 µM with SF-268 CNS; 11.7 µM in the assay with SK-MEL-28 melanoma; 23.1 µM in the assay with UACC-62 melanoma; 3.67 µM with RXF 393 renal. Besides, the GI50 with CAKI-1 renal was 15.5 µM. The TGI in the assay on MDA-MB-435 was 37 µM; in the assay on HS 578T breast, above 100 µM; with SF-268 CNS it was 38.2 µM; with SK-MEL-28 melanoma it was 41.4 µM; in the assay on UACC-62 melanoma it was 57.6 µM; in the assay with RXF 393 renal, 20.3 µM. The molecule further returned a TGI in the assay with CAKI-1 renal of 62.3 µM.
Regarding `CCc1ccc(C2=C/C(=C/c3ccc(Cl)cc3)C(=O)N2CCc2ccc(S(N)(=O)=O)cc2)cc1`, the GI50 in the assay with MDA-MB-435 is 2.15 µM; in the assay with HS 578T breast, 3.05 µM; with SF-268 CNS, 4.63 µM; with SK-MEL-28 melanoma, 4.28 µM; in the assay with UACC-62 melanoma it was 1.82 µM; with RXF 393 renal, 1.74 µM. Also, the GI50 with CAKI-1 renal was 2.91 µM. Also, the TGI with MDA-MB-435 was 4.81 µM; in the assay on HS 578T breast it was 10.9 µM; in the assay on SF-268 CNS, 25.9 µM; in the assay with SK-MEL-28 melanoma, 15.8 µM; in the assay on UACC-62 melanoma, 6.22 µM; in the assay on RXF 393 renal, 3.79 µM. The molecule also returned a TGI in the assay with CAKI-1 renal of 12.4 µM.
In the case of `O=c1oc2ccc(Cl)cc2c(=O)n1-c1ccc(Cl)cc1F`, the GI50 in the assay on MDA-MB-435 is 0.572 µM; in the assay on HS 578T breast, 0.285 µM; in the assay with SF-268 CNS, 0.419 µM; with SK-MEL-28 melanoma, 0.379 µM; in the assay on UACC-62 melanoma it was 0.247 µM; in the assay on RXF 393 renal, 0.512 µM. Moreover, the GI50 in the assay with CAKI-1 renal is 0.271 µM. The TGI is 4.86 µM in the assay on MDA-MB-435; 1.97 µM in the assay on HS 578T breast; 7.07 µM with SF-268 CNS; 2.29 µM with SK-MEL-28 melanoma; 0.964 µM in the assay on UACC-62 melanoma; 1.85 µM in the assay on RXF 393 renal. The TGI with CAKI-1 renal was determined as 1.67 µM.
Turning to `CN(C)CC/C=C1\c2ccccc2Sc2ccc(Cl)cc21`, the GI50 in the assay on MDA-MB-435 was 1.77 µM; in the assay with HS 578T breast, 2.99 µM; in the assay on SF-268 CNS it was 3.78 µM; in the assay with SK-MEL-28 melanoma, 1.74 µM; in the assay on UACC-62 melanoma, 1.51 µM; in the assay with RXF 393 renal, 1.86 µM. In the assay with CAKI-1 renal, the GI50 is 2.56 µM. The TGI is 4.03 µM and 23.1 µM with MDA-MB-435; 15.1 µM and 37 µM in the assay on HS 578T breast; 14.1 µM and 30.1 µM in the assay with SF-268 CNS; 3.11 µM and 20.2 µM in the assay on SK-MEL-28 melanoma; 3.09 µM and 26.7 µM in the assay with UACC-62 melanoma; 5.59 µM and 28.3 µM with RXF 393 renal. Also, the TGI in the assay on CAKI-1 renal was 11.4 µM and 21.4 µM.
On to `CS(=O)(=O)c1ccc(N/N=C/c2c(-c3ccc(S(C)(=O)=O)cc3)[nH]c3ccc(F)cc23)cc1`, for which the GI50 in the assay on MDA-MB-435 was 3.12 µM; in the assay on SF-268 CNS it was 3.4 µM; with SK-MEL-28 melanoma, 1.59 µM; with UACC-62 melanoma it was 1.91 µM; with RXF 393 renal, 0.904 µM; with CAKI-1 renal it was above 50 µM. Also, the TGI in the assay with MDA-MB-435 is above 50 µM; with SF-268 CNS it was above 50 µM; with SK-MEL-28 melanoma, above 50 µM; in the assay with UACC-62 melanoma it was above 50 µM; in the assay on RXF 393 renal it was 1.94 µM; in the assay on CAKI-1 renal it was above 50 µM.
